This is an account of results in Sander's compilation of Henry's law constants.

The structures appear in SMILES notation.

The nature of data set [1]: Henry solubility constant Hcp at 313 K (mol/(m3 Pa)). The following applies: reference: Vitenberg et al. (1974).
Data set [2] is described as follows: Henry solubility constant Hcp at 301 K (mol/(m3 Pa)). The following applies: reference: Nelson and Hoff (1968).
Data set [3] is described as follows: Henry solubility constant Hcp at 298.15 K (mol/(m3 Pa)).
Data set [4] can be described thus: Henry solubility constant Hcp at 283 K (mol/(m3 Pa)). The following applies: reference: Heal et al. (1995).
A short description of data set [5]: Henry solubility constant Hcp at 323 K (mol/(m3 Pa)). The following applies: reference: Dallos et al. (1983).
The nature of data set [6]: Henry solubility constant Hcp at 290 K (mol/(m3 Pa)). The following applies: reference: Disselkamp et al. (1999).
Data set [7] is described as follows: Henry solubility constant Hcp at 275 K (mol/(m3 Pa)). The following applies: reference: Katrib et al. (2001).
Data set [8] in a line: Henry solubility constant Hcp at 287 K (mol/(m3 Pa)). The following applies: reference: Hempel (1901).
Data set [9] is described as follows: Henry solubility constant Hcp at 311 K (mol/(m3 Pa)). The following applies: reference: Grollman (1929).
A short description of data set [10]: Henry solubility constant Hcp at 288 K (mol/(m3 Pa)). The following applies: reference: Billitzer (1902).
Data set [11] in a line: Henry solubility constant Hcp at 333 K (mol/(m3 Pa)). The following applies: reference: Severit (1997).
A short description of data set [12]: Henry solubility constant Hcp at 310 K (mol/(m3 Pa)). The following applies: reference: Power and Stegall (1970).
Data set [13] is described as follows: Henry solubility constant Hcp at 273 K (mol/(m3 Pa)). The following applies: reference: Razumovskii and Zaikov (1971).
Data set [14] can be described thus: Henry solubility constant Hcp at 293 K (mol/(m3 Pa)). The following applies: reference: da Silva et al. (1980).
Data set [15] can be described thus: Henry solubility constant Hcp at 353 K (mol/(m3 Pa)). The following applies: reference: St-Pierre et al. (2014).
Setting [16] is: reference: Morrison and Billett (1952).
Where [17] appears, read: reference: Orcutt and Seevers (1937a).

As to `CCCC(C)=O` [2-pentanone], the “Henry solubility constant Hcp at 313 K” value in data set [1] came out at 0.11. The “Henry solubility constant Hcp at 301 K” value in data set [2] worked out at 0.092. Moreover, the “Henry solubility constant Hcp” value in data set [3] (reference: Chai et al. (2005)) was 0.1; in [3] (reference: Hawthorne et al. (1985)), 0.09; in data set [3] (reference: Hovorka et al. (2019)) it was 0.13; in data set [3] (reference: Ji and Evans (2007)) it was 0.16; in [3] (reference: Kim et al. (2000)), 0.11; in data set [3] (reference: Straver and de Loos (2005)) it was 0.086. Besides, in data set [3] (reference: Vitenberg et al. (1974)), the “Henry solubility constant Hcp” value was found to be 0.17.
Turning to `Nc1ccccc1` [aminobenzene], in data set [4], the “Henry solubility constant Hcp at 283 K” value is 1.2. In addition, the “Henry solubility constant Hcp at 323 K” value in data set [5] amounted to 1.1. Moreover, the “Henry solubility constant Hcp” value in [3] (reference: Jayasinghe et al. (1992)) turned out to be 5.
Regarding `ClBr` [bromine chloride], the “Henry solubility constant Hcp at 290 K” value in [6] was found to be 0.015. Moreover, in [7], the “Henry solubility constant Hcp at 275 K” value was below 0.062. For the same molecule, the “Henry solubility constant Hcp” value in data set [3] (reference: Bartlett and Margerum (1999)) stood at 0.0093.
Take `O=C=S` [carbon oxide sulfide]: in [8], the “Henry solubility constant Hcp at 287 K” value is 0.00034. Also, the “Henry solubility constant Hcp” value was 0.00022 in data set [3] (reference: De Bruyn et al. (1995b)); 0.00024 in data set [3] (reference: Stock and Kuß (1917)); 0.00021 in [3] (reference: Winkler (1906)); 0.00021 in data set [3] (reference: Winkler (1907)).
Consider `C=C` [ethene], for which the “Henry solubility constant Hcp at 311 K” value in data set [9] was determined as 3.4e-05. Besides, the “Henry solubility constant Hcp” value in data set [3] (reference: Maaßen (1995)) is 4.9e-05; in data set [3] (setting [16]) it was 4.7e-05; in data set [3] (setting [17]), 4.8e-05; in data set [3] (reference: Reichl (1995)), 4.8e-05; in [3] (reference: Winkler (1906)) it was 4.8e-05.
Take `C#C` [ethyne]: the “Henry solubility constant Hcp at 311 K” value in data set [9] came out at 0.00033. The “Henry solubility constant Hcp at 288 K” value in data set [10] was 0.00051. Also, the “Henry solubility constant Hcp” value in data set [3] (reference: Gatterer (1926)) stood at 0.00042; in [3] (reference: Jadkar and Chaudhari (1980)), 0.0004; in data set [3] (reference: Kremann and Hönel (1913)), 0.00037; in data set [3] (reference: Maillard and Rosenthal (1952)) it was 0.00025; in [3] (reference: Winkler (1906)), 0.00041.
Consider `[Cl][Hg][Cl]` [mercury dichloride], for which the “Henry solubility constant Hcp at 333 K” value in data set [11] came out at 1000.
With `O=O` [oxygen], the “Henry solubility constant Hcp at 310 K” value in data set [12] was 1.1e-05. Further, in data set [13], the “Henry solubility constant Hcp at 273 K” value is 0.00014. For the same molecule, the “Henry solubility constant Hcp at 293 K” value in data set [14] was found to be 1.2e-05. Besides, the “Henry solubility constant Hcp” value in [3] (reference: Benson et al. (1979)) worked out at 1.3e-05; in [3] (reference: Bohr and Bock (1891)), 1.3e-05; in [3] (reference: Bunsen (1855a)), 1.2e-05; in data set [3] (reference: Carpenter (1966)), 1.2e-05; in data set [3] (reference: Cosgrove and Walkley (1981)) it was 1.3e-05; in data set [3] (reference: Cramer (1980)), 1.3e-05. In addition, the “Henry solubility constant Hcp” value in data set [3] (reference: Fox (1909)) was determined as 1.3e-05; in [3] (reference: Geffcken (1904)) it was 1.2e-05; in data set [3] (reference: Millero et al. (2002a)), 1.2e-05; in [3] (reference: Millero et al. (2002b)), 1.2e-05; in data set [3] (setting [16]), 1.3e-05; in [3] (reference: Murray and Riley (1969)) it was 1.3e-05. The “Henry solubility constant Hcp” value in data set [3] (setting [17]) was found to be 1.2e-05; in data set [3] (reference: Rettich et al. (1981)), 1.3e-05; in [3] (reference: Rettich et al. (2000)), 1.3e-05; in data set [3] (reference: Sherwood et al. (1991)) it was 1.3e-05; in [3] (reference: Shoor et al. (1969)), 1.2e-05; in data set [3] (reference: Timofejew (1890)), 1.2e-05. Besides, in data set [3] (reference: Winkler (1891b)), the “Henry solubility constant Hcp” value worked out at 1.3e-05.
In the case of `O=S=O` [sulfur dioxide], in data set [15], the “Henry solubility constant Hcp at 353 K” value was 0.4. Besides, the “Henry solubility constant Hcp” value was found to be 0.012 in [3] (reference: Johnstone and Leppla (1934)); 0.014 in data set [3] (reference: Schoenfeld (1855)).
